Reference: patent US11779565B2, “Small organic molecules for use in the treatment of neuroinflammatory disorders” (THE MEDICAL RESEARCH, INFRASTRUCTURE AND HEALTH SERVICES …, priority 2017, dated 2023)

Tests used:
P19 cells = experiment: In vitro differentiation assay of P19 cells (MAP-2 positive neurons); format: cell-based, murine; conditions: RA stimulation alone (5×10^−7 M), day 8
Description: P19 cells were grown in a-minimum essential medium (aMEM) (Gibco) containing 7.5% calf serum, 2.5% fetal calf serum, and 0.4 μl/ml penicillin—streptomycin (Gibco), at 37° C., 5% CO2. Cells were replenished with fresh medium every 48 h.
The medium, including RA, BMP supplements and SMs, was replenished after 48 h. After 4 days, aggregates which formed during RA treatment were dispersed enzymatically (0.05% v/v trypsin-0.02% v/v EDTA) and mechanically and plated in tissue culture grade dishes. At this stage, cells were cultured in RA-, BMP- and SM-free medium, which was refreshed every 48 h. MAP-2 positive neurons were examined at day 8 (i.e., day 4 post-RA treatment) by immunofluorescence. Briefly, at day 7, cells were re-cultured in 24 well-plates with cover slips at a final concentration of 5×10^4 cells/well. On day 8, cells were washed with PBS, fixed with PFA 4% for 15 min, permeabilized with 0.5% Triton Tx, blocked with 10% FCS, 0.1% BSA and 0.05% Tween for 30 min, and stained with MAP2 rabbit mAb (1:100, D5G1, Cell Signaling) for 1 hr. The second antibody step was performed by labeling with Alexa Fluor® 488-conjugated IgG antibody to rabbit for 1 h (1:1000; Molecular Probes USA).
Next, the effect of the small molecules on neurogenesis in a P19 differentiation model was measured. […] Neuronal differentiation is marked by the expression of the neuronal marker MAP-2, while the addition of BMP-2 reduces the levels of this marker. Addition of the murine anti-BMP-2/4 monoclonal antibody reverses the effect of BMP-2 and induces acquisition of neuronal phenotype. Thus, the effect of SM1, SM7 and SM9 on the expression of the neuronal marker MAP-2 in P19 cells was examined in the presence of RA and BMP-2. Three concentrations of the molecules were tested: 0.625 μM, 1.25 μM and 2.5 μM.

BMP-2 = target: T1, BMP-2 (Homo sapiens, UniProt P12643); experiment: ATDC5 cell based HTS bioassay: ALP production stimulated by BMP-2 and heparin; set-up: species or system mouse; conditions: inhibition of BMP-2-stimulated ALP in ATDC5 cells, 48 hours, tested at 0.62-10 μM
T1 construct: purchased R&D Systems
T1 sequence (P12643 283-396): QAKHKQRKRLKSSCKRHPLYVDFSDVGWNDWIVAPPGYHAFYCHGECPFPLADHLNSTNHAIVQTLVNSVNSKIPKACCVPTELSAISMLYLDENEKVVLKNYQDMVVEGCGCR
Description: Poly-L-lysine (Sigma-Aldrich) was added to 384-well plates and was removed after 30 min of incubation at RT. An assay medium containing DMEM/F12, 2% FBS, 100 units/ml penicillin, […] streptomycin (Biological industries) was added to each well. […] ATDC5 cells (Sigma-Aldrich) were harvested, re-suspended in assay medium and added to a final concentration of 2000 cells/well. Finally, heparin (Sigma-Aldrich) was added to a final concentration of 2 μg/ml. The cells were incubated for 48 hours at 37° C. with 5% CO2 in a humidified chamber in the presence or absence of potential small molecule inhibitors of BPM-2. After incubation, ALP levels and cell viability were determined using a completely automated protocol. Cells were washed with PBS, lysed using a lysis buffer containing 0.2% Triton X-100 in PBS supplemented with a protease inhibitor cocktail (Sigma-Aldrich) and incubated for 25 min at RT. ALP level was then determined by addition of CDP-Star® chemiluminescent substrate (Sigma-Aldrich) and measurement of luminescence after incubation for 25 min at RT in the dark. Cell viability was finally determined by addition of CellTiter-Glo® reagent (Biological Industries) and luminescence measurement after 10 min of incubation.
An ATDC5 cell based assay for assessing structure-function relationship of BMP-2 and BMP receptor IA was originally described in Keller et al (Nature Structural & Molecular Biology 2004 11, 481-488). In order to screen a large volume of potential therapeutic agents the ATDC5 cell based bioassay for detecting BMP inhibition was adapted for use in high throughput screening. The bioassay is based on the stimulation of alkaline phosphatase (ALP) production in mouse ATDC5 cells by administration of BMP-2 and heparin, and measurement of ALP levels in the presence of the potential inhibitors. […] This was achieved by using CellTiter-Glo® Luminescent Cell Viability Assay for assessing the cells' viability after the luminescent signal by CDP-Star® has faded. The simultaneous assessment of both ALP production and cells' viability was necessary since potentially toxic tested small molecules may lead to reduced ALP levels by cellular cytotoxicity rather than by interference with BMP-2 signaling. […] Particulars of the bioassay are detailed in the Experimental procedures section above.
A library of small molecules (SM) was screened using the High Throughput Screening bioassay described above. About 7600 SMs were screened, from the Maybridge library, which consists of organic “drug-like” compounds, using the pre-plated HitFinder™ Collection. […] The SM were tested at various concentrations, i.e. at 0.62 μM, 1.25 μM, 2.5 μM, 5 μM and 10 μM.

| IC50 (BMP-2) [µM] | SMILES | MAP-2+ cells (P19 cells) [%] |
| --- | --- | --- |
| – | CC1=C(/C=C/C(C)=C/C=C/C(C)=C/C(=O)O)C(C)(C)CCC1 [RA, all-trans-retinoic acid, reference compound] | 73.8±6.5 |
| 8.5 | c1ccc(C2=NNC(c3ccccc3)=NN2)cc1 [SM2, 1,4-Dihydro-3,6-diphenyl-1,2,4,5-tetrazine] | – |
| 2.6 | CCOC(=O)c1c(NC(=O)c2ccc([N+](=O)[O-])o2)nc(SC)n1Cc1cccs1 [SM3] | – |
| 10 | O=C1c2cccc3cc([N+](=O)[O-])cc(c23)C(=O)N1c1ccc(S(=O)(=O)Nc2ccc(C(F)(F)F)cc2)cc1 [SM4, 4-(5-nitro-1,3-dioxobenzo(de)isoquinolin-2-yl)-N-[4-(trifluoromethyl)phenyl]benzenesulfonamide] | – |
| 3.8 | CC(=O)NC(=O)CCSc1ccccc1C(=O)NC(C)=O [SM5, N1-acetyl-2-([3-(acetylamino)-3-oxopropyl]thio)benzamide] | – |
| 2.8 | C/C(=N\NC(=S)NC(C)(C)C)c1ccc(Oc2c(Cl)cncc2Cl)cc1 [SM8, 1-tert-butyl-3-[E-1-(4-(3,5-dichloropyridin-4-yl)oxyphenyl]ethylideneamino)thiourea] | – |
